One data set deals with T1, Toll-like receptor 9 (Mus musculus, UniProt Q9EQU3).
T1 sequence (Q9EQU3 whole entry): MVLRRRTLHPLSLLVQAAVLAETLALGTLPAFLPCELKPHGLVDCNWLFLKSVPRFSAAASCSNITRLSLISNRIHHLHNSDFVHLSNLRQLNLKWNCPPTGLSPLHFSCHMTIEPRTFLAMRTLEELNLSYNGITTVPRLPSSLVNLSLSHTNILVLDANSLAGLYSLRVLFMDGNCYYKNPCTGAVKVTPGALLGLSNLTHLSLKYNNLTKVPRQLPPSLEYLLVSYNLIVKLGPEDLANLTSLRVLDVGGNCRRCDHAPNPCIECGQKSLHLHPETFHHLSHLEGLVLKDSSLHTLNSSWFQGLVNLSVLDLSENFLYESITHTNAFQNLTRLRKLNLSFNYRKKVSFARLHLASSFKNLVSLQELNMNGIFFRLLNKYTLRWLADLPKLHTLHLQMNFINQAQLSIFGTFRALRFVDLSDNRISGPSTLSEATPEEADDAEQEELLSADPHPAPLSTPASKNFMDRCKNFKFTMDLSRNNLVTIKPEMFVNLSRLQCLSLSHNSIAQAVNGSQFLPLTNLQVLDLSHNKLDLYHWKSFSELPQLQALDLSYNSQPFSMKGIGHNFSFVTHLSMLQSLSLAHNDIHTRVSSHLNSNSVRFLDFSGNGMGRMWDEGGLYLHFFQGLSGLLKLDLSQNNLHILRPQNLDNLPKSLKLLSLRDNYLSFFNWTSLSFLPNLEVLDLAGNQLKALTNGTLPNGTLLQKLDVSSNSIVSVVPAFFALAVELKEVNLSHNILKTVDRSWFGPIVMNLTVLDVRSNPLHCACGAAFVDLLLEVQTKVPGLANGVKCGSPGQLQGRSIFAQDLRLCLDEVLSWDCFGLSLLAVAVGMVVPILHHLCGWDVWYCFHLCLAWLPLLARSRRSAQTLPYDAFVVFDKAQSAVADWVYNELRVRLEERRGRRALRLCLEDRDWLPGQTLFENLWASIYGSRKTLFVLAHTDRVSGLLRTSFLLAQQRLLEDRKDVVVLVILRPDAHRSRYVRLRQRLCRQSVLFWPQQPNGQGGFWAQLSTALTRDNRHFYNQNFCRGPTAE
The data set can be described thus: Antagonist activity at TLR9 in mouse splenocytes assessed as inhibition of CpG1585-induced IL6 production. Type of data set: cell-based, Splenocyte.

The target in the next data set is T2, Toll-like receptor 8 (Homo sapiens, UniProt Q9NR97).
T2 sequence (Q9NR97 whole entry): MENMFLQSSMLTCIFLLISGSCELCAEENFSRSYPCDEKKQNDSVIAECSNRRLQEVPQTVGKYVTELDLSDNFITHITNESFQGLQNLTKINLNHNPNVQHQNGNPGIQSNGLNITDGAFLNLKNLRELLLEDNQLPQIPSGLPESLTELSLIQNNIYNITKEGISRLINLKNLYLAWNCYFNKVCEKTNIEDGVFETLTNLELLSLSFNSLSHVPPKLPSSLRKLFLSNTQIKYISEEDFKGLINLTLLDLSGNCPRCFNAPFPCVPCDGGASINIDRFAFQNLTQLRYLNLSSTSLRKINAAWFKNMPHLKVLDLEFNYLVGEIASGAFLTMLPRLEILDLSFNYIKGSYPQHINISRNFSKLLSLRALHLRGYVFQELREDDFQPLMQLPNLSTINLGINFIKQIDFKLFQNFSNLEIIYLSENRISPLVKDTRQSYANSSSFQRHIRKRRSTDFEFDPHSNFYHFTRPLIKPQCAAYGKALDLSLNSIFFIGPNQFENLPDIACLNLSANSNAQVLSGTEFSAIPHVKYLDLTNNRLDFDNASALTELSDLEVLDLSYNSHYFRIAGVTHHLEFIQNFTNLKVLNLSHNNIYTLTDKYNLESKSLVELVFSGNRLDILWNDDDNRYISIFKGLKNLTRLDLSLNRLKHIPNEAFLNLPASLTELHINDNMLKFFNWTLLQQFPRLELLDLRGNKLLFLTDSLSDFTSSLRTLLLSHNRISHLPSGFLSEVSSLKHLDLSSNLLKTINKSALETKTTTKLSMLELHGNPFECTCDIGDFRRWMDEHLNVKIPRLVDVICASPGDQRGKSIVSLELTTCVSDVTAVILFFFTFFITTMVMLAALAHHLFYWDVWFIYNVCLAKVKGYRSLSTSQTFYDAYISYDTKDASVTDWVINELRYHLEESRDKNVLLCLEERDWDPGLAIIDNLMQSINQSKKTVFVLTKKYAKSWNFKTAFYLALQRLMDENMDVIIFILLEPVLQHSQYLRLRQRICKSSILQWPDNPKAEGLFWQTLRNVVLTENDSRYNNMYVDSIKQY
The data set can be described thus: Antagonist activity at TLR8 in human THP-1 cells assessed as inhibition of resiquimod-induced TNFalpha production. Type of data set: cell-based.

Data set [1] can be described thus: Clearance in BALB/c mouse at 5 mg/kg, iv. Type of data set: ADME, organism-based. The settings on record: in vivo.
The nature of data set [2]: Terminal half life in BALB/c mouse at 5 mg/kg, iv. Type of data set: ADME, organism-based. The settings on record: in vivo, read-out: beta t1/2 (converted).

The values that follow come from ChEMBL document CHEMBL4725311, “Discovery of potent, orally bioavailable in vivo efficacious antagonists of the TLR7/8 pathway” (Bioorg Med Chem Lett, 2020).

Molecules are shown by their SMILES. A value given as a limit tells only on which side of the number the result lay.

As a reminder, the IC50 is the point on the concentration scale where inhibition reaches its midpoint. The clearance is a measure of how efficiently the substance is removed, as volume per time. Read a high clearance as a high capacity for elimination.

Take `Cc1cc(-c2ccnc3[nH]ncc23)cnc1OCC12CCC(N)(CC1)CC2`: the figures for the IC50 at Toll-like receptor 9 and on Toll-like receptor 8 were 1200 nM and under 1 nM, respectively. In data set [1], this molecule came in with a clearance of 23 mL/min/kg. Moreover, the half-life in data set [2] is 4 h.
